# The supplement of paper PMC10307832
# Legend:
# Assay in all cases: relative viability (nuclei count vs DMSO), 5 days (fraction); higher = more cells survive
# [1] = compound: CS(=O)(=O)c1ccc(-c2cnc(N)c(C(=O)Nc3ccccc3)n2)cc1 [VE-821] + CCNC(=O)c1noc(-c2cc(C(C)C)c(O)cc2O)c1-c1ccc(CN2CCOCC2)cc1 [Luminespib] (partner 0.01 µM)
# Procedure, shortened: (§1)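 Lung cancer cell lines were seeded in 1536-well plates and dosed by pin tool the next day, with either a single drug or a fixed anchor-drug dose combined with five library-drug doses (not always all listed) spaced in √10 steps. Five days later, one step fixed the cells and stained their nuclei (final 0.05% Triton X-100, 1% formaldehyde, 1 ug/ml Hoechst), and nuclei were counted on 4× images. Relative viability is the nuclei count in treated wells divided by the count in vehicle wells, and each value is the median of duplicate plates.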
# [2] = compound: CS(=O)(=O)c1ccc(-c2cnc(N)c(C(=O)Nc3ccccc3)n2)cc1 [VE-821] + Nc1nc2[nH]cc(CCc3ccc(C(=O)N[C@@H](CCC(=O)O)C(=O)O)cc3)c2c(=O)[nH]1 [Pemetrexed] (partner 0.2 µM)
# Procedure, shortened: as §1
# [3] = compound: CS(=O)(=O)c1ccc(C(=O)Nc2ccc(Cl)c(-c3ccccn3)c2)c(Cl)c1 [Vismodegib] + COc1cc2c(Oc3ccc(NC(=O)C4(C(=O)Nc5ccc(F)cc5)CC4)cc3F)ccnc2cc1OCCCN1CCOCC1 [Foretinib] (partner 0.25 µM)
# Procedure, shortened: as §1
# [4] = compound: N#CC[C@H](C1CCCC1)n1cc(-c2ncnc3[nH]ccc23)cn1 [Ruxolitinib] + COc1cccc2cc(-c3nc([C@H]4CC[C@H](C(=O)O)CC4)n4ncnc(N)c34)[nH]c12 [OSI-027] (partner 0.5 µM)
# Procedure, shortened: as §1
Cell Line,relative viability ([1]; first compound 0.08 µM),relative viability ([1]; first compound 0.253 µM),relative viability ([1]; first compound 0.8 µM),relative viability ([1]; first compound 2.53 µM),relative viability ([1]; first compound 8 µM),relative viability ([2]; first compound 0.08 µM),relative viability ([2]; first compound 0.253 µM),relative viability ([2]; first compound 0.8 µM),relative viability ([2]; first compound 2.53 µM),relative viability ([2]; first compound 8 µM),relative viability ([3]; first compound 0.08 µM),relative viability ([3]; first compound 0.253 µM),relative viability ([3]; first compound 0.8 µM),relative viability ([3]; first compound 2.53 µM),relative viability ([3]; first compound 8 µM),relative viability ([4]; first compound 0.08 µM),relative viability ([4]; first compound 0.253 µM),relative viability ([4]; first compound 0.8 µM),relative viability ([4]; first compound 2.53 µM),relative viability ([4]; first compound 8 µM)
SK-LU-1,0.177,0.203,0.193,0.203,0.164,0.971,0.943,0.917,0.672,0.4,0.76,0.821,0.875,0.753,0.818,0.413,0.36,0.393,0.295,0.291
NCI-H358,0.62,0.307,0.334,0.537,1.49,0.177,0.199,0.177,0.166,0.122,0.677,0.629,0.797,0.68,0.782,0.417,0.654,0.754,0.406,0.565
NCI-H1793,0.155,0.234,0.175,0.162,0.121,1.2,0.769,–,1.13,0.565,–,0.524,0.616,0.848,0.609,0.346,0.239,0.374,0.253,0.26
ChaGo-K-1,0.537,0.481,0.445,0.582,0.312,0.28,0.333,0.274,0.261,0.253,1.03,0.918,0.92,0.838,0.886,0.698,0.436,0.544,0.524,0.545
LCLC-97TM1,0.821,0.795,0.952,0.993,0.709,0.191,0.186,0.164,0.189,0.125,0.953,0.934,0.869,0.97,0.912,0.502,0.3,0.362,0.488,0.563
NCI-H661,0.88,0.944,0.958,0.914,0.803,0.979,0.923,0.84,0.744,0.571,1.07,1.02,0.99,0.961,1.09,0.752,0.664,0.834,0.664,0.666
NCI-H1944,0.835,0.698,0.421,0.803,0.416,0.693,0.695,0.495,0.384,0.172,0.851,0.794,0.897,0.878,0.942,0.398,0.38,0.368,0.374,0.408
SW 1573,0.21,0.228,0.214,0.226,0.165,0.774,0.816,0.748,0.784,0.576,0.994,0.908,0.907,0.895,1.01,0.607,0.482,0.815,0.386,0.573
NCI-H1975,0.213,0.197,0.26,0.193,0.193,0.297,0.282,0.264,0.213,0.167,0.993,0.996,0.933,0.832,0.964,0.734,0.699,0.639,0.485,0.473
EPLC-272H,0.265,0.301,0.179,0.288,0.221,0.347,0.36,0.218,0.141,0.0907,0.787,0.727,0.68,0.785,0.776,0.275,0.282,0.291,0.267,0.272
EMC-BAC-2,1.36,1.15,1.09,1.11,0.931,0.45,0.391,0.427,0.371,0.308,0.977,0.965,0.95,1,1.04,0.391,0.344,0.358,0.359,0.224
PC-3 [JPC-3],0.718,0.718,0.698,0.726,0.705,1.25,1.03,1.18,1.13,0.848,1.08,1.01,0.965,0.993,1.03,0.756,0.702,0.811,0.704,0.672
NCI-H2342,0.8,0.65,0.552,0.708,0.717,0.792,0.777,0.804,0.736,0.667,0.984,1.04,1.06,0.949,0.947,0.557,0.564,0.674,0.585,0.736
